Usually IC50 stands for the concentration at which inhibition is half-maximal.

Bounds are passed on as bounds.

Tie-2, sequence (Q02763 23-1124): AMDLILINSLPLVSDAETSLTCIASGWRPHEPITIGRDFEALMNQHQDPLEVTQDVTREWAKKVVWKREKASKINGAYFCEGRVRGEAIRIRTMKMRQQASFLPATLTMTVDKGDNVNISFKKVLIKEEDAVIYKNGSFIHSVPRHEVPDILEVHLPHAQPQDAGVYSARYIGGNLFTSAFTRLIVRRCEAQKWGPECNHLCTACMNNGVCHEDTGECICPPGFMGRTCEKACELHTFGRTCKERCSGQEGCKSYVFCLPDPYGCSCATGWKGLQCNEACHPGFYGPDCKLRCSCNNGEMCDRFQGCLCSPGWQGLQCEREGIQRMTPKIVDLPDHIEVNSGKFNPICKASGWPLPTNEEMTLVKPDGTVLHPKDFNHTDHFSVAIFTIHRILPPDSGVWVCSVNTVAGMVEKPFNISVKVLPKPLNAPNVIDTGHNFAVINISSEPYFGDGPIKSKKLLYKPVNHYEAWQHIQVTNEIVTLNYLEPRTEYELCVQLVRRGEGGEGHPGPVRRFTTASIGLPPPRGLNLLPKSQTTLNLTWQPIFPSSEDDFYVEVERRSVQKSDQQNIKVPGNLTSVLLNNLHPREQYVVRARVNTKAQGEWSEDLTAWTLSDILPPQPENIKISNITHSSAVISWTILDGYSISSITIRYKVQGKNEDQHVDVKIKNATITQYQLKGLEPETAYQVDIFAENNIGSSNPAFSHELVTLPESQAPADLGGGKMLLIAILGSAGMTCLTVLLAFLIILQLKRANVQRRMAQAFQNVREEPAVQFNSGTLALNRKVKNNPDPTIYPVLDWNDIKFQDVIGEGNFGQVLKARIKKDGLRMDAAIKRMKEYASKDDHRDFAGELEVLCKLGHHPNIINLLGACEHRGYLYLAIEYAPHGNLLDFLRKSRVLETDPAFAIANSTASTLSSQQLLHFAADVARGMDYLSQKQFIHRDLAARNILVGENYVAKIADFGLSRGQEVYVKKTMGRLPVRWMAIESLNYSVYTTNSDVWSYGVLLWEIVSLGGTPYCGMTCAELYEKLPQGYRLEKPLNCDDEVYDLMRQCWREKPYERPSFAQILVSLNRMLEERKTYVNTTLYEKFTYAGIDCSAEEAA

The assay has as its target Tie-2 (Homo sapiens, UniProt Q02763). Briefly: Tie-2 tyrosine kinase activity: kinase-dependent ATP consumption (pEY substrate, luciferase/luciferin chemiluminescence) or 33P-ATP incorporation into substrate. It is filed as biochemical. The conditions noted are these: Tie-2 (human enzyme) inhibition, Table 2, class symbols A-D. The gist of the method:
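Values are IC50 categories: A below 50 nM, B above 50 to 1000 nM, C above 1000 to below 10,000 nM, D 10,000 nM or more. They were measured by 33P-ATP phosphate transfer onto a generic substrate bound to the plate (scintillation), or by luminescent luciferase detection of ATP used with pEY.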
As to `COc1ccc(-c2nc(-c3ccncc3)nn2CCN(C(=O)Nc2cc(Cl)ccc2OC)C2CCCC2)cc1Cl` [Entry 142, N′-[5-chloro-2-(methyloxy)phenyl]-N-(2-{5-[3-chloro-4-(methyloxy)phenyl]-3-pyridin-4-yl-1H-1,2,4-triazol-1-yl}ethyl)-N-cyclopentylurea], the half-maximal inhibitory concentration (IC50) was at least 10 µM.
For `COc1ccc(-c2nc(-c3ccncc3)nn2CCN(C(=O)Nc2cccc(SC)c2)C2CCCC2)cc1Cl` [Entry 143, N-(2-{5-[3-chloro-4-(methyloxy)phenyl]-3-pyridin-4-yl-1H-1,2,4-triazol-1-yl}ethyl)-N-cyclopentyl-N′-[3-(methylthio)phenyl]urea] the value was at least 10 µM; for `COc1ccc(-c2nc(-c3ccncc3)nn2CCN(C(=O)Nc2cc(C)cc(C)c2)C2CCCC2)cc1Cl` [Entry 144, N-(2-{5-[3-chloro-4-(methyloxy)phenyl]-3-pyridin-4-yl-1H-1,2,4-triazol-1-yl}ethyl)-N-cyclopentyl-N′-(3,5-dimethylphenyl)urea], at least 10 µM.
For `COc1ccc(-c2nc(-c3ccncc3)nn2CCN(C(=O)Nc2cc(C)ccc2OC)C2CCCC2)cc1Cl` [Entry 145, N-(2-{5-[3-chloro-4-(methyloxy)phenyl]-3-pyridin-4-yl-1H-1,2,4-triazol-1-yl}ethyl)-N-cyclopentyl-N′-[5-methyl-2-(methyloxy)phenyl]urea] the value was at least 10 µM; for `COc1ccc(-c2nc(-c3ccncc3)nn2CCN(C(=O)Nc2ccc(I)cc2)C2CCCC2)cc1Cl` [Entry 146, N-(2-{5-[3-chloro-4-(methyloxy)phenyl]-3-pyridin-4-yl-1H-1,2,4-triazol-1-yl}ethyl)-N-cyclopentyl-N′-(4-iodophenyl)urea], at least 10 µM; for `COc1ccc(-c2nc(-c3ccncc3)nn2CCN(C(=O)Nc2ccc(Oc3ccccc3)cc2)C2CCCC2)cc1Cl` [Entry 147, N-(2-{5-[3-chloro-4-(methyloxy)phenyl]-3-pyridin-4-yl-1H-1,2,4-triazol-1-yl}ethyl)-N-cyclopentyl-N′-[4-(phenyloxy)phenyl]urea], at least 10 µM.
For `COc1ccc(-c2nc(-c3ccncc3)nn2CCN(C(=O)Nc2c(C)cc(C)cc2C)C2CCCC2)cc1Cl` [Entry 148, N-(2-{5-[3-chloro-4-(methyloxy)phenyl]-3-pyridin-4-yl-1H-1,2,4-triazol-1-yl}ethyl)-N-cyclopentyl-N′-(2,4,6-trimethylphenyl)urea], the concentration for half-maximal inhibition (IC50) was at least 10 µM.
For `COc1ccc(-c2nc(-c3ccncc3)nn2CCN(C(=O)Nc2cc(Cl)ccc2C)C2CCCC2)cc1Cl` [Entry 149, N-(2-{5-[3-chloro-4-(methyloxy)phenyl]-3-pyridin-4-yl-1H-1,2,4-triazol-1-yl}ethyl)-N′-(5-chloro-2-methylphenyl)-N-cyclopentylurea] the value was 1 to 10 µM; for `COc1ccc(-c2nc(-c3ccncc3)nn2CCN(C(=O)Nc2ccc(Cl)cc2C)C2CCCC2)cc1Cl` [Entry 150, N-(2-{5-[3-chloro-4-(methyloxy)phenyl]-3-pyridin-4-yl-1H-1,2,4-triazol-1-yl}ethyl)-N′-(4-chloro-2-methylphenyl)-N-cyclopentylurea], 1 to 10 µM; for `COc1ccc(-c2nc(-c3ccncc3)nn2CCN(C(=O)Nc2c(C)cccc2Cl)C2CCCC2)cc1Cl` [Entry 151, N-(2-{5-[3-chloro-4-(methyloxy)phenyl]-3-pyridin-4-yl-1H-1,2,4-triazol-1-yl}ethyl)-N′-(2-chloro-6-methylphenyl)-N-cyclopentylurea], at least 10 µM.
Compound `COc1ccc(-c2nc(-c3ccncc3)nn2CCN(C(=O)Nc2cccc(Cl)c2C)C2CCCC2)cc1Cl` [Entry 152, N-(2-{5-[3-chloro-4-(methyloxy)phenyl]-3-pyridin-4-yl-1H-1,2,4-triazol-1-yl}ethyl)-N′-(3-chloro-2-methylphenyl)-N-cyclopentylurea] came in with a concentration for half-maximal inhibition (IC50) of 0.05 to 1 µM.
Under `COc1ccc(-c2nc(-c3ccncc3)nn2CCN(C(=O)Nc2ccc(F)c(Cl)c2)C2CCCC2)cc1Cl` [Entry 153, N′-(3-chloro-4-fluorophenyl)-N-(2-{5-[3-chloro-4-(methyloxy)phenyl]-3-pyridin-4-yl-1H-1,2,4-triazol-1-yl}ethyl)-N-cyclopentylurea] stands at least 10 µM.
For `COc1ccc(-c2nc(-c3ccncc3)nn2CCN(C(=O)Nc2ccccc2SC)C2CCCC2)cc1Cl` [Entry 154, N-(2-{5-[3-chloro-4-(methyloxy)phenyl]-3-pyridin-4-yl-1H-1,2,4-triazol-1-yl}ethyl)-N-cyclopentyl-N′-[2-(methylthio)phenyl]urea] the value was at least 10 µM; for `COc1ccc(-c2nc(-c3ccncc3)nn2CCN(C(=O)Nc2cccc(C(F)(F)F)c2)C2CCCC2)cc1Cl` [Entry 155, N-(2-{5-[3-chloro-4-(methyloxy)phenyl]-3-pyridin-4-yl-1H-1,2,4-triazol-1-yl}ethyl)-N-cyclopentyl-N′-[3-(trifluoromethyl)phenyl]urea], at least 10 µM; for `C=CCNC(=O)N(CCn1nc(-c2ccncc2)nc1-c1ccc(OC)c(Cl)c1)C1CCCC1` [Entry 156, N-(2-{5-[3-chloro-4-(methyloxy)phenyl]-3-pyridin-4-yl-1H-1,2,4-triazol-1-yl}ethyl)-N-cyclopentyl-N′-prop-2-en-1-ylurea], at least 10 µM.
As for `COc1ccc(-c2nc(-c3ccncc3)nn2CCN(C(=O)Nc2ccccc2C(C)C)C2CCCC2)cc1Cl` [Entry 157, N-(2-{5-[3-chloro-4-(methyloxy)phenyl]-3-pyridin-4-yl-1H-1,2,4-triazol-1-yl}ethyl)-N-cyclopentyl-N′-[2-(1-methylethyl)phenyl]urea], the IC50 was at least 10 µM.
As for `COc1ccc(-c2nc(-c3ccncc3)nn2CCN(C(=O)Nc2cc(F)ccc2C)C2CCCC2)cc1Cl` [Entry 158, N-(2-{5-[3-chloro-4-(methyloxy)phenyl]-3-pyridin-4-yl-1H-1,2,4-triazol-1-yl}ethyl)-N-cyclopentyl-N′-(5-fluoro-2-methylphenyl)urea], the half-inhibitory concentration (IC50) fell in the range of 1 to 10 µM.
For the compound `COc1ccc(-c2nc(-c3ccncc3)nn2CCN(C(=O)Nc2ccc(F)c(F)c2)C2CCCC2)cc1Cl` [Entry 159, N-(2-{5-[3-chloro-4-(methyloxy)phenyl]-3-pyridin-4-yl-1H-1,2,4-triazol-1-yl}ethyl)-N-cyclopentyl-N′-(3,4-difluorophenyl)urea], the IC50 was in the range of 1 to 10 µM.
Under `Cc1nc(-c2ccncc2)nn1CCN(CCN1CCOCC1)C(=O)Cc1cccc2ccccc12` [Entry 160, N-[2-(5-methyl-3-pyridin-4-yl-1H-1,2,4-triazol-1-yl)ethyl]-N-(2-morpholin-4-ylethyl)-2-naphthalen-1-ylacetamide] stands at least 10 µM; under `CNc1nccc(-c2nc(C)n(CCN(C(=O)Cc3cccc4ccccc34)C3CCCC3)n2)n1` [Entry 161, N-cyclopentyl-N-(2-{5-methyl-3-[2-(methylamino)pyrimidin-4-yl]-1H-1,2,4-triazol-1-yl}ethyl)-2-naphthalen-1-ylacetamide], at least 10 µM; under `Cc1nc(-c2ccc3nsnc3c2)nn1CCN(C(=O)Cc1cccc2ccccc12)C1CCCC1` [Entry 162, N-{2-[3-(2,1,3-benzothiadiazol-5-yl)-5-methyl-1H-1,2,4-triazol-1-yl]ethyl}-N-cyclopentyl-2-naphthalen-1-ylacetamide], 0.05 to 1 µM.

These data come from US8178570B2, “Tie-2 modulators and methods of use” (Exelixis, Inc., priority 2003, dated 2012).
